From US20260200943A1, “COMPOUNDS FOR TREATING CANCER” (Genesis Therapeutics, Inc., priority 2022, published 2026) come the findings set out here.

Common to all, as to type: biochemical
In one assay the target is T1, CDK2/CyclinA2 (Homo sapiens, UniProt P24941).
T1 construct: Wild-type, full length CDK2 in complex with wildtype, full length CyclinA2: Carna Cat #04-103; purchased Carna 04-103
The experiment in a line: CDK2/Cyclin A2 Mobility Shift Assay (Caliper, Table B). As to conditions: for Ki: Caliper mobility shift, 10xKm, read-out: CDK2/CCNA2 Caliper 10xKm Ki: Average Ki. The procedure: 10 nL of 2000× compound in 100% DMSO is added to a 384-well polypropylene assay plate. 15 μL of 1.3×CDK2/A2 and 1.3× fluorescent substrate (Wild-type, full length CDK2 in complex with wildtype, full length CyclinA2: Carna Cat #04-103 and FL-Peptide 18: PerkinElmer Cat #760362) diluted in kinase buffer (50 mM Hepes, 0.01% Brij-35, 10 mM MgCl2, 1 mM EGTA, 0.05% BSA, and 2 mM DTT) is added to the plates on top of the compound, mixed, and pre-incubated for 30 minutes at room temperature. The fluorescently labeled peptide substrate is phosphorylated by CDK2/A2 upon ATP hydrolysis. Following the incubation, 5 μL of 4×ATP diluted in kinase buffer is added to the plate to initiate the reaction. Following the 30-minute incubation, the reaction is stopped by adding 75 μL of stopping buffer containing 0.5 M EDTA.
(§1) The assay plate is then read on a Lab Chip EZ Reader which separates the fluorescently labeled substrate and product peptides through a mobility difference. The phosphorylation of the substrate imparts a negative charge, which allows differences in separation as both are pulled through the microfluidic chip. The ratio of substrate and product values are used to generate percent conversion. These raw percent conversion values are normalized to calculate percent inhibition, which are fit to a four-parameter logistic curve and IC50 values are calculated. IC50 values are converted to Ki through using substrate and Km^app values, and the Cheng-Prusoff equation.

The next assay has as its target T2, CDK6/CyclinD3 (Homo sapiens, UniProt Q00534).
T2 construct: Wild-type, full length CDK6 in complex with wildtype, full length CyclinD3: Carna Cat #04-107; purchased Carna 04-107
Nature of the assay: CDK6/Cyclin D3 Mobility Shift Assay (Caliper, Table B). Particulars: read-out: CDK6/CCND3 Caliper Ki: Average Ki. How it is done: 10 nL of 2000× compound in 100% DMSO is added to a 384-well polypropylene assay plate. 15 μL of 1.3×CDK6/D3 and 1.3× fluorescent substrate (Wild-type, full length CDK6 in complex with wildtype, full length CyclinD3: Carna Cat #04-107 and FL-Peptide 34: PerkinElmer Cat #760643) diluted in kinase buffer (50 mM Hepes, 0.01% Brij-35, 10 mM MgCl2, 1 mM EGTA, 0.05% BSA, and 2 mM DTT) is added to the plates on top of the compound, mixed, and pre-incubated for 30 minutes at room temperature. The fluorescently labeled peptide substrate is phosphorylated by CDK6/D3 upon ATP hydrolysis. Following the incubation, 5 μL of 4×ATP diluted in kinase buffer is added to the plate to initiate the reaction. Following the 30-minute incubation, the reaction is stopped by adding 75 μL of stopping buffer containing 0.5 M EDTA.
as §1

The target in assay [1] is T3, CDK9/CyclinT1 (Homo sapiens, UniProt P50750). Nature of the assay: CDK9/CyclinT1 Mobility Shift Assay (Caliper, Table B). Further details: Wild-type, full length CDK9 in complex with wildtype, CyclinT1 (1-259): Biortus Cat #BP480/792/691; purchased Biortus BP480/792/691. As to conditions: read-out: CDK9/Cyclin T1 Caliper Ki: Average Ki. An outline of the steps: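 Full-length wild-type CDK9 with CyclinT1 (1-259) and fluorescent peptide substrate, pre-incubated with compound 30 min at room temperature in Hepes/Brij-35/MgCl2/EGTA/BSA/DTT buffer; ATP added, 30 min reaction, EDTA stop. Substrate/product separated by microfluidic mobility shift; percent inhibition fit to four-parameter curve, IC50 converted to Ki by Cheng-Prusoff using Kmapp.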
T3 sequence (P50750 whole entry): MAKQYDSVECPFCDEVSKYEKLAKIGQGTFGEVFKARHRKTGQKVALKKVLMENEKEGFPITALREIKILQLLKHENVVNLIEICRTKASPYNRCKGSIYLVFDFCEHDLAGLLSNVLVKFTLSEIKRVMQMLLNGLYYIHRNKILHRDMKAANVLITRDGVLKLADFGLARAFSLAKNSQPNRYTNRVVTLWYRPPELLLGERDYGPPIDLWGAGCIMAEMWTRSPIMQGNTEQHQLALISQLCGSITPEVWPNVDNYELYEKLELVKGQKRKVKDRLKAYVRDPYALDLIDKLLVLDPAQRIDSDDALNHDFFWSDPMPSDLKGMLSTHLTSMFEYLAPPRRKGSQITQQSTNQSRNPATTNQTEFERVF
T3 sequence (O60563 1-259 partner limits assumed): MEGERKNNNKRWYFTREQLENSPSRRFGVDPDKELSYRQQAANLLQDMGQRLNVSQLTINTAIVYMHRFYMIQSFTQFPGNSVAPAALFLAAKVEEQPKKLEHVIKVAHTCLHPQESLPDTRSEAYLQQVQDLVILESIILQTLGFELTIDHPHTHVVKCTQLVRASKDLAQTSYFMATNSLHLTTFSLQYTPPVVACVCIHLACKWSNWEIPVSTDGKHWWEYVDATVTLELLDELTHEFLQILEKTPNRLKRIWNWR

In assay [2] the target is T3, CDK9/CyclinT1. Nature of the assay: CDK9/CyclinT1 ChEF Assay (AQT, Table C). Particulars: 10XKm. Further details: Wild-type, full length CDK9 in complex with wildtype, CyclinT1 (1-259): Biortus Cat #BP480/792/691; purchased Biortus BP480/792/691. How it is done: 16 nL of 1000× compound in 100% DMSO is added to a 384-well low volume, black assay plate. 12 μL of 1.3×CDK9/CyclinT1 (Wild-type, full length CDK9 in complex with wildtype, CyclinT1 (1-259): Biortus Cat #BP480/792/691) diluted in assay buffer (54 mM Hepes, 0.012% Brij-35, 10 mM MgCl2, 0.55 mM EGTA, 1% Glycerol, 0.02% BSA, and 1.2 mM DTT) is added to the plates on top of the compound and pre-incubated for 30 minutes at room temperature. Following the incubation, 4 μL of 4×Sox-chromophore (CSox) labeled peptide substrate (AQT0449, AssayQuant) & ATP diluted in assay buffer is added to the plate to initiate the reaction. The assay is incubated at room temperature for 180 min after initiation. The CSox peptide substrate is phosphorylated by CDK9/T1 upon ATP hydrolysis.
The fluorescent intensity measurement of the assay plate is read on a microplate reader once the assay is initiated and again at the completion of the assay. Phosphorylation of the CSox-based peptide substrate sensor results in an immediate increase in fluorescence. These raw fluorescence intensity values are normalized to calculate percent inhibition, which are fit to a four-parameter logistic curve and IC50 values are calculated. IC50 values are converted to Ki using substrate, KM^app values, and the Cheng-Prusoff equation.

T2 sequence (Q00534 whole entry): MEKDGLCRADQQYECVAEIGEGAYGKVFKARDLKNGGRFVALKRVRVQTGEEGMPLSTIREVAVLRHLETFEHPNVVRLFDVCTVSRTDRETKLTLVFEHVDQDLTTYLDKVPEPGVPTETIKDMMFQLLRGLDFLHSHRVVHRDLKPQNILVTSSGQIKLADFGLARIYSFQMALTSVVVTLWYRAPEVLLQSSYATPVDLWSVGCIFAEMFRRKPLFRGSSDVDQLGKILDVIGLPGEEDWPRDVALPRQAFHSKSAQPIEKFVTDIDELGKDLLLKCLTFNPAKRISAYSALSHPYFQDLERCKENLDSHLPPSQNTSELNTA
T2 sequence (P30281 whole entry partner): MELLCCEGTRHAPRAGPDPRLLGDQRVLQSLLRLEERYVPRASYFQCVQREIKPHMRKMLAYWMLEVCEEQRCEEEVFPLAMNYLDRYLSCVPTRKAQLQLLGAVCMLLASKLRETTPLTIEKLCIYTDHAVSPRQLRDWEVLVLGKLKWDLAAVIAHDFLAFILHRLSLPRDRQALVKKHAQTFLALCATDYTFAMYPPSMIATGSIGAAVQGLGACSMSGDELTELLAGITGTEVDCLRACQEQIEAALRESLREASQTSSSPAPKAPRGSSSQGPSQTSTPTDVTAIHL

Consider `O=C1NCCCCCCNS(=O)(=O)c2ccc(c(F)c2)Nc2cc([nH]n2)[C@H]2CC[C@H](C2)O1` [Compound 91, (1^1S,1^3R,Z)-4^2-fluoro-2^1H-15-oxa-5-thia-3,6,13-triaza-2(5,3)-pyrazola-4(1,4)-benzena-1(1,3)-cyclopentanacyclopentadecaphan-14-one 5,5-dioxide], for which, on CDK2/CyclinA2, the Ki was below 1 nM, the “CDK2/CCNA2 Caliper 10xKm Ki: CDK2/A2 Selectivity over CDK1/B1” value was “A (A>10)”, the “CDK2/CCNA2 Caliper 10xKm Ki: CDK2/A2 Selectivity over CDK6/D3” value is “A (A>10)” and the “CDK2/CCNA2 Caliper 10xKm Ki: CDK2/A2 Selectivity over CDK9” value was “A (A>10)”. Further, at CDK6/CyclinD3, the Ki was at least 100 nM. The Ki on CDK9/CyclinT1 [1] was in the range of 25 to 100 nM. Moreover, the Ki on CDK9/CyclinT1 [2] was 25 to 100 nM.

Take `O=C1NCC=CCNS(=O)(=O)c2ccc(c(F)c2)Nc2cc([nH]n2)[C@H]2CC[C@H](C2)O1` [Compound 102, (1^1S,1^3R,2^4Z)-4^2-fluoro-2^1H-13-oxa-5-thia-3,6,11-triaza-2(5,3)-pyrazola-4(1,4)-benzena-1(1,3)-cyclopentanacyclotridecaphan-8-en-12-one 5,5-dioxide]: on CDK2/CyclinA2, the Ki was below 1 nM, the “CDK2/CCNA2 Caliper 10xKm Ki: CDK2/A2 Selectivity over CDK1/B1” value was “A (A>10)”, the “CDK2/CCNA2 Caliper 10xKm Ki: CDK2/A2 Selectivity over CDK6/D3” value is “A (A>10)” and the “CDK2/CCNA2 Caliper 10xKm Ki: CDK2/A2 Selectivity over CDK9” value was “A (A>10)”. Moreover, the Ki on CDK6/CyclinD3 is at least 100 nM. Also, the Ki on CDK9/CyclinT1 [1] was at least 100 nM.
